Results published in PubChem BioAssay (NCI).
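Interpolation was linear, between the two tested concentrations surrounding the appropriate level; five concentrations were tested over 48 hours in 96-well plates. TGI: concentration producing complete growth inhibition.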

tested on: NCI/ADR-RES ovarian; experiment: NCI-60 cell line screen, 48 h

SMILES | TGI
Clc1ccc(/C=C/c2nc3ccccc3s2)cc1Cl | > 100 µM
CCC1(O)CC2CC(=O)OC2C1O (stereo not drawn) | > 100 µM
Cc1ccc(SCC(CSCCO)OCn2cnc3c2NC(N)=NC32OCCO2)cc1 (stereo not drawn) | > 100 µM
C(/c1ccco1)=c1/nc(-c2ccccc2)n2c1nc1ccccc12 | > 100 µM
COC(=O)C1CCC(=O)N1C(c1ccccc1)c1ccc(OC)c(OC)c1 (stereo not drawn) | > 100 µM
Oc1cccc2c(Cl)ccnc12 | > 100 µM
Cc1cccc(/C=N/NC(=S)Nc2ccccc2)n1 | 10.8 µM
N#CC1=C(N)N(c2ccccc2)C(c2ccco2)C1(C#N)C#N (stereo not drawn) | 56.2 µM
Cc1cc(=O)[nH]c(NN2C(Cl)C(=O)C2c2ccccc2O)n1 (stereo not drawn) | 40.4 µM
COc1ccc(/C=C2\CCC(C)C3=C2NC(=S)NC3c2ccc(OC)c(OC)c2)cc1OC (stereo not drawn) | > 100 µM
COc1ccc2c(=O)c(O)c(-c3ccc(OC)c(OC)c3)oc2c1 | 8.25 µM
CC(C)CCCCCCCCCCCCC(=O)NCC(=O)NC1C(C)OC(Nc2ncnc3c2ncn3C)C(O)C1O (stereo not drawn) | > 100 µM
COc1ccc(CNc2nc(NCc3ccc(OC)c(OC)c3)nc(NC3CCCCC3)n2)cc1 | 17.5 µM
C=C(C1=CC(=O)C(C)(C)O1)[C@@H]1CC=C([C@@H]2CC[C@H]3[C@@]2(C)CC[C@H]2C(C)(C)C(=O)[C@H](O)C[C@]32C)[C@H](O)O1 | 25.4 µM
Cc1cn(C2CC(n3cc(Cn4cc(I)c(=O)[nH]c4=O)nn3)C(CO)O2)c(=O)[nH]c1=O (stereo not drawn) | > 100 µM
CNC(=O)OCC1=C(COC(=O)NC)C(C)N(c2ccc(OC)cc2)C1 (stereo not drawn) | > 100 µM
c1ccc(N=C2SC3=Nc4cccc5cccc(c45)N3C2=Nc2ccccc2)cc1 | > 100 µM
O=C1CCC(=O)N1n1c(Cc2ccccc2)n[nH]c1=O | > 100 µM
O=C(O)CN(CC(=O)O)C1CCCCC1N(CC(=O)O)CC(=O)NCCN=C=S (stereo not drawn) | > 100 µM
Cc1nc(C(N)=S)sc1/C(CC(=O)C(=O)Nc1cccc2ccc(O)cc12)=N\NC(=O)c1ccncc1 | > 100 µM
Cc1cn(C2CC(N(O)C(N)=O)C(CO)O2)c(=O)[nH]c1=O (stereo not drawn) | > 100 µM
O=C1CCC23CC(C=CC=C12)n1c(=O)n(-c2ccccc2)c(=O)n13 (stereo not drawn) | > 81.2 µM
O=C(O)c1cccc2c1/C(=N/Nc1ccccc1)CC2 | > 100 µM
O=C(Cc1cccs1)N[C@@H]1C(=O)N2C(C(=O)OC(c3ccccc3)c3ccccc3)=C(CO)CS[C@H]12 | > 100 µM
CC1=C(C)[C@@]2(C)O[C@@]2(C)O[C@@]2(C)O[C@@]12C | > 100 µM
Cc1ccccc1-n1c(=O)c2ncn(CCCl)c2n(-c2ccccc2C)c1=S | > 100 µM

tested on: HCC-2998 colon; experiment: NCI-60 cell line screen, 48 h

SMILES | TGI
CCNC(=S)N/N=C/c1cc([N+](=O)[O-])ccc1O | > 100 µM
CCOC(=O)c1c2ccccc2n2c(N)c(C(N)=O)nnc12 | > 100 µM
Cc1cc(N(CCC#N)CCC#N)ccc1/C(N=Nc1ccc(Cl)cc1)=N\NC(=O)c1ccccc1 | > 100 µM
CC[C@@]1(O)C(=O)OCc2c1cc1n(c2=O)Cc2c-1nc1ccccc1c2/C=N\NC(=O)CN | > 47.4 µM
CCc1ccc(CCN2CCCCC2)nc1 | > 100 µM
CNC(=O)C(C)C1CCC2(C)C=CC(=O)C(C)=C2C1O (stereo not drawn) | > 100 µM
O=C(NNC(=O)c1ccccc1SSc1ccccc1C(=O)NNC(=O)c1ccccc1S)c1ccccc1S | > 100 µM
CCOC(=O)C(NC(C)=O)(Nc1ccc(F)cc1)C(F)(F)F (stereo not drawn) | > 100 µM
CCOc1cc2c(cc1O)/C(=N\OC)C[C@@H]1[C@@H]2CC[C@]2(C)[C@@H](O)CC[C@@H]12 | 14.4 µM
O=C1/C(=C/c2ccc(O)cc2)CC/C1=C\c1ccc(O)cc1 | > 100 µM
CC(C)C1/C(=N/O)CC(c2ccccc2)N(N=O)C1c1ccccc1 (stereo not drawn) | > 100 µM
CC1(C)N=C(/C(Cl)=[N+](/[O-])C(=O)c2ccc(F)cc2)C(C)(C)N1O | 35.4 µM
COC(=O)[C@H](Cc1c[nH]c2ccccc12)NP(=O)(O)OCC1C=CC(n2cc(C)c(=O)[nH]c2=O)O1 (stereo partly drawn) | > 100 µM
COc1cc(/C=C2\S/C(=N/Nc3nc(-c4ccc(Br)cc4)cs3)NC2=O)cc(OC)c1OC | 32.5 µM
O=C(Nc1ccc(C2=NCCN2)cc1)c1cncc(C(=O)Nc2ccc(C3=NCCN3)cc2)c1 | > 100 µM
Clc1ccc(/C=C/c2nc3ccccc3s2)cc1Cl | > 100 µM
CCC1(O)CC2CC(=O)OC2C1O (stereo not drawn) | > 100 µM
Cc1ccc(SCC(CSCCO)OCn2cnc3c2NC(N)=NC32OCCO2)cc1 (stereo not drawn) | > 100 µM

SMILES | TGI
COC(=O)C1CCC(=O)N1C(c1ccccc1)c1ccc(OC)c(OC)c1 (stereo not drawn) | > 100 µM
Oc1cccc2c(Cl)ccnc12 | 14.9 µM
Cc1cccc(/C=N/NC(=S)Nc2ccccc2)n1 | > 61.6 µM
N#CC1=C(N)N(c2ccccc2)C(c2ccco2)C1(C#N)C#N (stereo not drawn) | 31.3 µM
Cc1cc(=O)[nH]c(NN2C(Cl)C(=O)C2c2ccccc2O)n1 (stereo not drawn) | > 100 µM
COc1ccc(/C=C2\CCC(C)C3=C2NC(=S)NC3c2ccc(OC)c(OC)c2)cc1OC (stereo not drawn) | > 100 µM
COc1ccc2c(=O)c(O)c(-c3ccc(OC)c(OC)c3)oc2c1 | > 100 µM
CC(C)CCCCCCCCCCCCC(=O)NCC(=O)NC1C(C)OC(Nc2ncnc3c2ncn3C)C(O)C1O (stereo not drawn) | 11.6 µM
C=C(C1=CC(=O)C(C)(C)O1)[C@@H]1CC=C([C@@H]2CC[C@H]3[C@@]2(C)CC[C@H]2C(C)(C)C(=O)[C@H](O)C[C@]32C)[C@H](O)O1 | 7.49 µM
Cc1cn(C2CC(n3cc(Cn4cc(I)c(=O)[nH]c4=O)nn3)C(CO)O2)c(=O)[nH]c1=O (stereo not drawn) | > 100 µM
c1ccc(N=C2SC3=Nc4cccc5cccc(c45)N3C2=Nc2ccccc2)cc1 | > 100 µM
O=C1CCC(=O)N1n1c(Cc2ccccc2)n[nH]c1=O | > 100 µM
O=C(O)CN(CC(=O)O)C1CCCCC1N(CC(=O)O)CC(=O)NCCN=C=S (stereo not drawn) | > 100 µM
Cc1nc(C(N)=S)sc1/C(CC(=O)C(=O)Nc1cccc2ccc(O)cc12)=N\NC(=O)c1ccncc1 | > 100 µM
O=C1CCC23CC(C=CC=C12)n1c(=O)n(-c2ccccc2)c(=O)n13 (stereo not drawn) | > 100 µM
O=C(O)c1cccc2c1/C(=N/Nc1ccccc1)CC2 | > 100 µM
O=C(Cc1cccs1)N[C@@H]1C(=O)N2C(C(=O)OC(c3ccccc3)c3ccccc3)=C(CO)CS[C@H]12 | > 100 µM
Cc1ccccc1-n1c(=O)c2ncn(CCCl)c2n(-c2ccccc2C)c1=S | > 100 µM

tested on: LOX IMVI melanoma; experiment: NCI-60 cell line screen, 48 h

SMILES | TGI
O=c1[nH][nH]c(=O)n1Cc1ccccc1Cn1c(=O)[nH][nH]c1=O | > 100 µM
CCNC(=S)N/N=C/c1cc([N+](=O)[O-])ccc1O | > 100 µM
CCOC(=O)c1c2ccccc2n2c(N)c(C(N)=O)nnc12 | > 100 µM
CC[C@@]1(O)C(=O)OCc2c1cc1n(c2=O)Cc2c-1nc1ccccc1c2/C=N\NC(=O)CN | 1.36 µM
CCc1ccc(CCN2CCCCC2)nc1 | > 100 µM
CNC(=O)C(C)C1CCC2(C)C=CC(=O)C(C)=C2C1O (stereo not drawn) | > 100 µM
O=C(NNC(=O)c1ccccc1SSc1ccccc1C(=O)NNC(=O)c1ccccc1S)c1ccccc1S | > 100 µM
CCOC(=O)C(NC(C)=O)(Nc1ccc(F)cc1)C(F)(F)F (stereo not drawn) | > 100 µM
CCOc1cc2c(cc1O)/C(=N\OC)C[C@@H]1[C@@H]2CC[C@]2(C)[C@@H](O)CC[C@@H]12 | 16.7 µM
O=C1/C(=C/c2ccc(O)cc2)CC/C1=C\c1ccc(O)cc1 | > 100 µM
CC(C)C1/C(=N/O)CC(c2ccccc2)N(N=O)C1c1ccccc1 (stereo not drawn) | > 100 µM
CC1(C)N=C(/C(Cl)=[N+](/[O-])C(=O)c2ccc(F)cc2)C(C)(C)N1O | 24.3 µM
COC(=O)[C@H](Cc1c[nH]c2ccccc12)NP(=O)(O)OCC1C=CC(n2cc(C)c(=O)[nH]c2=O)O1 (stereo partly drawn) | > 100 µM
COc1cc(/C=C2\S/C(=N/Nc3nc(-c4ccc(Br)cc4)cs3)NC2=O)cc(OC)c1OC | 33.2 µM
COC(=O)[C@H]1CO[C@@H](C(C)(C)C)N1C(=O)N1C=CC(=O)C[C@@H]1C | > 100 µM
O=C(Nc1ccc(C2=NCCN2)cc1)c1cncc(C(=O)Nc2ccc(C3=NCCN3)cc2)c1 | > 100 µM
Clc1ccc(/C=C/c2nc3ccccc3s2)cc1Cl | 3.12 µM
CCC1(O)CC2CC(=O)OC2C1O (stereo not drawn) | > 100 µM
Cc1ccc(SCC(CSCCO)OCn2cnc3c2NC(N)=NC32OCCO2)cc1 (stereo not drawn) | > 100 µM
C(/c1ccco1)=c1/nc(-c2ccccc2)n2c1nc1ccccc12 | > 100 µM

SMILES | TGI
COC(=O)C1CCC(=O)N1C(c1ccccc1)c1ccc(OC)c(OC)c1 (stereo not drawn) | > 100 µM
Oc1cccc2c(Cl)ccnc12 | 19.6 µM
Cc1cccc(/C=N/NC(=S)Nc2ccccc2)n1 | 21.4 µM
N#CC1=C(N)N(c2ccccc2)C(c2ccco2)C1(C#N)C#N (stereo not drawn) | 31.1 µM
Cc1cc(=O)[nH]c(NN2C(Cl)C(=O)C2c2ccccc2O)n1 (stereo not drawn) | > 100 µM
COc1ccc(/C=C2\CCC(C)C3=C2NC(=S)NC3c2ccc(OC)c(OC)c2)cc1OC (stereo not drawn) | > 31.6 µM
COc1ccc2c(=O)c(O)c(-c3ccc(OC)c(OC)c3)oc2c1 | > 100 µM
CC(C)CCCCCCCCCCCCC(=O)NCC(=O)NC1C(C)OC(Nc2ncnc3c2ncn3C)C(O)C1O (stereo not drawn) | > 100 µM
COc1ccc(CNc2nc(NCc3ccc(OC)c(OC)c3)nc(NC3CCCCC3)n2)cc1 | > 100 µM
C=C(C1=CC(=O)C(C)(C)O1)[C@@H]1CC=C([C@@H]2CC[C@H]3[C@@]2(C)CC[C@H]2C(C)(C)C(=O)[C@H](O)C[C@]32C)[C@H](O)O1 | 3.45 µM
CNC(=O)OCC1=C(COC(=O)NC)C(C)N(c2ccc(OC)cc2)C1 (stereo not drawn) | > 100 µM
O=C1CCC(=O)N1n1c(Cc2ccccc2)n[nH]c1=O | > 100 µM
O=C(O)CN(CC(=O)O)C1CCCCC1N(CC(=O)O)CC(=O)NCCN=C=S (stereo not drawn) | > 100 µM
Cc1nc(C(N)=S)sc1/C(CC(=O)C(=O)Nc1cccc2ccc(O)cc12)=N\NC(=O)c1ccncc1 | > 100 µM
O=C1CCC23CC(C=CC=C12)n1c(=O)n(-c2ccccc2)c(=O)n13 (stereo not drawn) | > 100 µM
O=C(O)c1cccc2c1/C(=N/Nc1ccccc1)CC2 | > 100 µM
O=C(Cc1cccs1)N[C@@H]1C(=O)N2C(C(=O)OC(c3ccccc3)c3ccccc3)=C(CO)CS[C@H]12 | > 100 µM
CC1=C(C)[C@@]2(C)O[C@@]2(C)O[C@@]2(C)O[C@@]12C | > 100 µM
Cc1ccccc1-n1c(=O)c2ncn(CCCl)c2n(-c2ccccc2C)c1=S | > 100 µM

tested on: 786-0 renal; experiment: NCI-60 cell line screen, 48 h

SMILES | TGI
O=c1[nH][nH]c(=O)n1Cc1ccccc1Cn1c(=O)[nH][nH]c1=O | > 100 µM
CCNC(=S)N/N=C/c1cc([N+](=O)[O-])ccc1O | > 100 µM
